In publication PMC7162861, “Synthesis, cytotoxicity, pharmacokinetic profile, binding with DNA and BSA of new imidazo[1,2-a]pyrazine-benzo[d]imidazol-5-yl hybrids” (Scientific Reports, 2020):

How the values were obtained:
[1] = Experimental log P, shake-flask method; type: physicochemical; conditions: n-octanol/phosphate buffer pH 7.4, read-out: Exp. Log P
Description: Partition coefficients or experimental log P values of all synthesized compounds (9–23, 30 and 31) were calculated using the shake-flask method. Log P values were determined using n-octanol and phosphate buffer (pH = 7.4) at 10:1 ratio of volumes. Stock solutions (10^−3 M) of compounds were prepared in DMSO. Glass vials were used to make final solutions i.e. stock solution (250 µL) and phosphate buffer (125 µL). To record the absorbance, wavelength was selected based on λmax of the respective compound. Initial absorbance (Ai) for every compound was noted consuming the stock solution in the buffer phase. Now added n-octanol to every vial and shaken well using a mechanical shaker for 50 minutes. To get separation of both phases, glass vials were centrifuged for 35 min. at 2500 rpm. Then, the layer of octanol was separated from glass vial. The final absorbance (Af) of each compound was recorded by using the buffer layer. The values of P for compounds were determined by the following equation (Eq. 8):8 P=Ai−Af/Af×Vw/Vo

Compound | logP [1] | melting point [°C]
COc1ccccc1-c1cn2ccnc2c(-c2ccc3c(c2)ncn3C2CCCCC2)n1 [Compound 20, 8-(1-cyclohexyl-1H-benzo[d]imidazol-5-yl)-6-(2-methoxyphenyl)imidazo[1,2-a]pyrazine] | 1.88 | 195 to 198
CCc1ccc(-c2cn3ccnc3c(-c3ccc4c(c3)ncn4C3CCCCC3)n2)cc1 [Compound 16, 8-(1-cyclohexyl-1H-benzo[d]imidazol-5-yl)-6-(4-ethylphenyl)imidazo[1,2-a]pyrazine] | 1.74 | 182 to 185
